Assay results published in article PMC3303611 (Journal of Medicinal Chemistry, 2012).
Where two headings read alike, the source gives them in different places.

What was measured:
H3 receptor = H3 receptor (Homo sapiens, UniProt Q9Y5N1); assay: GTP-γ-S assay performed by the Psychoactive Drug Screening Program; type: biochemical
brain H3 receptors = assay: PET imaging of [18F]9 in monkey; type: in vivo, rhesus monkey; settings: [18F]9 Vt, two monkeys, ciproxifan pretreatment
human H3 receptors = settings: human vs rat H3; known, ref not given; cited from earlier work
rat H3 receptors = settings: known, ref not given; cited from earlier work

H3 receptor, sequence (Q9Y5N1 whole entry): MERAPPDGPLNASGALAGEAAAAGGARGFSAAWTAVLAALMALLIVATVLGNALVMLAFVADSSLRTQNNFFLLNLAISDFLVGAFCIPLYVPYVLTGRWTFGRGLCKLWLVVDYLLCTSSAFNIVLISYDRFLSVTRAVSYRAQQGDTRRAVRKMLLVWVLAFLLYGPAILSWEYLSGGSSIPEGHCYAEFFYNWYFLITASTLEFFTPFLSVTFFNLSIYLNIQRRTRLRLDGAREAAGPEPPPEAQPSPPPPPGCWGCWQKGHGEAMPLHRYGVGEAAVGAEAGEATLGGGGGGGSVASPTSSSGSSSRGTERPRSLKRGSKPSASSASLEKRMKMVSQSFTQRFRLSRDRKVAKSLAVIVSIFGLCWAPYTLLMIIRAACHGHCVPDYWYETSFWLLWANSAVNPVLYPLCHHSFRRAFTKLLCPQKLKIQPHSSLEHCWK

C[C@@H]1CCCN1CCc1cc2cc(C(=O)c3ccc([N+](=O)[O-])cc3)ccc2o1 [Compound 12, (R)-(2-(2-(2-Methylpyrrolidin-1-yl)ethyl)benzofuran-5-yl)(4-nitrophenyl)methanone]
intrinsic activity (H3 receptor; GTP-γ-S assay, Psychoactive Drug Screening Program): inverse agonists

O=C(c1ccc(OCCCc2c[nH]cn2)cc1)C1CC1 [ciproxifan]
Mean Vt decrease (brain H3 receptors; Cerebellum): -26% | Mean Vt decrease (brain H3 receptors; Frontal cortex): -34% | Mean Vt decrease (brain H3 receptors; Hippocampus): -33% | Mean Vt decrease (brain H3 receptors; Striatum): -26% | Mean Vt decrease (brain H3 receptors; Thalamus): -33% | lower affinity for human H3 receptors than for rat H3 receptors (human H3 receptors): over 100 fold | Ki (rat H3 receptors): 0.51 nM

C[C@@H]1CCCN1CCc1cc2cc(C(=O)c3ccc(F)cc3)ccc2o1 [Compound 9, (R)-(2-(2-(2-methylpyrrolidin-1-yl)ethyl)benzofuran-5-yl)(4-fluorophenyl)methanone]
intrinsic activity (H3 receptor): inverse agonists
